Measured values: ChEMBL document CHEMBL1201862, “PubChem BioAssay data set” (2004)
Active and inactive are the calls of the source.

What was measured:
Large T antigen = Large T antigen (Simian virus 40, UniProt P03070); format: functional, Betapolyomavirus macacae;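 note: Confirmatory-stage PubChem screen for compounds that inhibit SV40 T antigen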
[1] = biological target: Peroxisome proliferator-activated receptor gamma/Nuclear receptor coactivator 2 (Homo sapiens, UniProt P37231); format: functional;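 note: agonist potency for raising coactivator recruitment to the receptor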
[2] = biological target: Peroxisome proliferator-activated receptor gamma/Nuclear receptor coactivator 1 (Homo sapiens, UniProt P37231); format: functional;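 note: agonist potency as compounds enhance coactivator SRC-1 recruitment to PPARgamma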
[3] = biological target: Peroxisome proliferator-activated receptor gamma/Nuclear receptor coactivator 3 (Homo sapiens, UniProt P37231); format: functional;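 note: agonist potency for raising coactivator recruitment to the receptor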
[4] = mitochondrial function rescue without frataxin homolog – Friedreich's ataxia, plus single-dose screen, dose response (AID 1465); format: functional;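 note: yeast depleted of Yfh1p frataxin homolog grown on glycerol needing respiration; WST-1 tetrazolium dye reduction as measure of cellular dehydrogenase metabolic activity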
[5] = Luminescence Cell-Based Dose Confirmation HTS to Identify Activators of 5'UTR Stem-Loop Driven Alpha-Synuclein mRNA Translation in H4 Neuroglioblastoma Cells. [Related pubchem assays: 1829 (Project Summary), 1814 (Primary HTS)]; format: functional
[6] = Luminescence Cell-Based Dose Response HTS to Identify Activators of Luciferase Translation or Activity in H4 […] Cells. [Related pubchem assays: 1829 (Project Summary), 1814 (Primary HTS)]; format: functional
[7] = A Cell Based Secondary Assay To Explore Cytotoxicity of Compounds that Sensitize Mycobacterium Tuberculosis to Beta-Lactam Antibiotics.; format: functional
H4 = assay: Luminescence Cell-Based Dose Response HTS to Identify Activators of 5'UTR Stem-Loop Driven Prion Protein mRNA Translation in H4 Neuroglioblastoma Cells. [Related pubchem assays: 1829 (Project Summary), 1814 (Primary HTS)]; format: functional; conditions: Homo sapiens
[8] = biological target: Transitional endoplasmic reticulum ATPase (Homo sapiens, UniProt P55072); assay: p97 ATPase inhibitors, dose response, biochemical (AID 1534)
[9] = biological target: Transitional endoplasmic reticulum ATPase (Homo sapiens, UniProt P55072, C522A); assay: C522A mutant p97 ATPase inhibitors, dose response, counter-screen for p97 inhibitor project, biochemical, luminescence (AID 1544)
[10] = fluconazole-exposed Candida albicans growth modulators – fluorescence, retest, confirmation (AID 2467); format: functional, cell-based
[11] = biological target: T1, Microphthalmia-associated transcription factor (Homo sapiens, UniProt O75030); assay: reducers of TRPM1 reporter luminescence, concentration series – cell-based, SK-MEL-5, cherry-picked, set 3, MITF inhibitor project, dose response (AID 493073); format: functional;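 note: SK-MEL-5 melanoma cells with luciferase driven by the MITF target TRPM1 promoter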
T1 sequence (O75030 whole entry): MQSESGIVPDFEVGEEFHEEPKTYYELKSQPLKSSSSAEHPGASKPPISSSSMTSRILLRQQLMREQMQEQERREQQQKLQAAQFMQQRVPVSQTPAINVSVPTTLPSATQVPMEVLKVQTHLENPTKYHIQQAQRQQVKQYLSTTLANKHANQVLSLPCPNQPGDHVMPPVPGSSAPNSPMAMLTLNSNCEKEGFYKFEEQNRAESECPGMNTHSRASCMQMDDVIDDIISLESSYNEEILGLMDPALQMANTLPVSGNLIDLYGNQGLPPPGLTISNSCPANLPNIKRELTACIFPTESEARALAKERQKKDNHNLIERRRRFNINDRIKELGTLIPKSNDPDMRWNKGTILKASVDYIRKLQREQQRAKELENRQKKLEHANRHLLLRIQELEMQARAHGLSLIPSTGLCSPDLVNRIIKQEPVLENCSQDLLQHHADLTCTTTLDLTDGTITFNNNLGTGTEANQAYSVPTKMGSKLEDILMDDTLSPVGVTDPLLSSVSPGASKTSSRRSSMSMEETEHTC

[12] = NIH-3T3 fibroblast cytotoxicity, dose response, cytotoxicity control, cell-based, fluorescence, Alamar Blue, secondary assay (AID 2327); format: functional;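 note: NIH-3T3 mouse fibroblasts cultured with fluconazole at 8 µg/mL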
BJ [13] = assay: cells; format: functional, cell-based; conditions: Homo sapiens
[14] = NIH3T3 cell viability loss – ATP luminescence, mouse fibroblasts, counter-screen, dose response (AID 2010); format: functional, cell-based;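 note: cells exposed to compound for about 90 hours before reading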
[15] = DRD fibroblast viability loss – cell-based, non-viral oncogenic, luminescence, dose response (AID 1934); format: functional; conditions: Homo sapiens
[16] = Luminescence-based dose response cell-based high throughput screening assay for cytotoxic compounds using the IEC-6 intestinal epithelial cell line. [Related pubchem assays: 1858 (Summary AID.), 1825 (Counterscreen.), 1907 (Confirmation screen.)]; format: functional
[17] = alpha-synuclein stem-loop luciferase translation blockers – H4 neuroglioma cells, luminescence, confirmation (AID 1988); format: functional, cell-based
[18] = Trypanosoma cruzi growth suppression in host cells – NIH3T3 host cells, beta-gal luminescence, confirmation (AID 2044); format: functional, cell-based;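 note: intracellular parasites grown in NIH/3T3 mouse fibroblasts as host cells; luminescent beta-galactosidase reporter signal from transgenic T. cruzi replicating inside host cells; inhibitors lower the luminescence signal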
[19] = alpha-synuclein stem-loop translation blockers – luminescence, H4 neuroglioblastoma cells, dose confirmation, confirmation (AID 2454); format: functional, cell-based;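 note: H4 neuroglioblastoma cells carrying an alpha-synuclein 5'UTR luciferase reporter; potency for inhibition of the luciferase signal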
[20] = luciferase reporter signal reduction – luminescence, H4-C neuroglioblastoma cells, dose response (AID 2458); format: functional, cell-based;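 note: H4 neuroglioblastoma cells stably carrying a luciferase reporter gene fusion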
BJ [21] = assay: BJ-TERT fibroblast viability loss – cell-based, RAS-independent, luminescence, dose response (AID 1933); format: functional; conditions: Homo sapiens
cells [22] = format: functional, cell-based
cells [23] = assay: cells
[24] = luciferase reporter signal suppression in cells – H4 neuroglioma cells, luminescence, dose response (AID 1990); format: functional, cell-based
[25] = HEK-293T viability loss after treatment – luminescence, T-cell screen hits, cytotoxicity control for TCR NF-kB inhibitor project, dose response (AID 489026); format: functional, cell-based;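 note: cells exposed to compound about 14 hours before the viability readout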
[26] = biological target: T2, Polyadenylate-binding protein 1 (Homo sapiens, UniProt P11940); assay: MLLE domain peptide-binding blockers, IC50 – biochemical, fluorescence polarization, FITC-PAM2 peptide, dose response (AID 602259); format: functional; conditions: read-out: IC50_Mean
[27] = biological target: T2, Polyadenylate-binding protein 1; assay: MLLE binding blockers, Cy5 peptide tracer – biochemical, fluorescence polarization, Cy5-PAM2 peptide, secondary, miRNA deadenylation inhibitor project, dose response (AID 602260); format: functional; conditions: read-out: IC50_Mean

T2 sequence (P11940 whole entry, the tested form may be a part): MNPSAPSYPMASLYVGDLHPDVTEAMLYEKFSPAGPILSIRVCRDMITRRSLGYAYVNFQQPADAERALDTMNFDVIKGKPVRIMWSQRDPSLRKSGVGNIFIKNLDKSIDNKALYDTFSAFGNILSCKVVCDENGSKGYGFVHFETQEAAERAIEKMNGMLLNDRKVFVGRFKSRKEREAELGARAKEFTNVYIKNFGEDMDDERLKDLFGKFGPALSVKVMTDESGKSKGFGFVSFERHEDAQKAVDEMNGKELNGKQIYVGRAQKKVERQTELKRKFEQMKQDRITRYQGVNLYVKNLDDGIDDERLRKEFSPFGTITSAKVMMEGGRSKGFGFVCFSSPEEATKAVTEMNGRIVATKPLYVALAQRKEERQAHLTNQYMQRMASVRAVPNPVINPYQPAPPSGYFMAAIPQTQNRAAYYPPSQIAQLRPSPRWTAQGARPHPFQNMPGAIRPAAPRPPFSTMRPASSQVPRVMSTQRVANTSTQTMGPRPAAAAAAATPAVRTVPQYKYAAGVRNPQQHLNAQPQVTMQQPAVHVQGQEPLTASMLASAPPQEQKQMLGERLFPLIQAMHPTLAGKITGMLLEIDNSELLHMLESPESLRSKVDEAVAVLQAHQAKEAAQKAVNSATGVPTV
Sequence of Transitional endoplasmic reticulum ATPase (Homo sapiens, UniProt P55072) (P55072 whole entry): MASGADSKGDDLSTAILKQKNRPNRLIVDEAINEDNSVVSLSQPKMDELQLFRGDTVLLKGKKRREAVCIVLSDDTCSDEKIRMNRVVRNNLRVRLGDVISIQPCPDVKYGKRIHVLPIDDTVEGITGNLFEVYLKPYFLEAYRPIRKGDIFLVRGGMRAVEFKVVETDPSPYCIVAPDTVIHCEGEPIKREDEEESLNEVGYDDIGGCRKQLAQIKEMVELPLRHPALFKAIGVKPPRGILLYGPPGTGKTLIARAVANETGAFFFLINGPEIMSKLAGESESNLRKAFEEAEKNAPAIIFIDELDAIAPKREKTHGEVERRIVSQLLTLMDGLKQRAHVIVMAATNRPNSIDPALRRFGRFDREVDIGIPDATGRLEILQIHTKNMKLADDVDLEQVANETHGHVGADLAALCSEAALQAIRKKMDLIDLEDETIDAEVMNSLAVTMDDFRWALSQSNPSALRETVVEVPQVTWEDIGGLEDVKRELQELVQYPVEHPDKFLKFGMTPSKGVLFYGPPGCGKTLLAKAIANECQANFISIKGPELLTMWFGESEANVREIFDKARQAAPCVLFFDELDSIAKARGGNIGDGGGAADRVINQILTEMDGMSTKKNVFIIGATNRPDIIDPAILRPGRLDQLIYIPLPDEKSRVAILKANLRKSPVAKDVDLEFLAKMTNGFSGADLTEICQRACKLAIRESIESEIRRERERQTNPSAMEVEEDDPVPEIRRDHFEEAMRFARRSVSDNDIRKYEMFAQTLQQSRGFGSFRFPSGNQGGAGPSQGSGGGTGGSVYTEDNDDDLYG
Sequence of Large T antigen (P03070 whole entry): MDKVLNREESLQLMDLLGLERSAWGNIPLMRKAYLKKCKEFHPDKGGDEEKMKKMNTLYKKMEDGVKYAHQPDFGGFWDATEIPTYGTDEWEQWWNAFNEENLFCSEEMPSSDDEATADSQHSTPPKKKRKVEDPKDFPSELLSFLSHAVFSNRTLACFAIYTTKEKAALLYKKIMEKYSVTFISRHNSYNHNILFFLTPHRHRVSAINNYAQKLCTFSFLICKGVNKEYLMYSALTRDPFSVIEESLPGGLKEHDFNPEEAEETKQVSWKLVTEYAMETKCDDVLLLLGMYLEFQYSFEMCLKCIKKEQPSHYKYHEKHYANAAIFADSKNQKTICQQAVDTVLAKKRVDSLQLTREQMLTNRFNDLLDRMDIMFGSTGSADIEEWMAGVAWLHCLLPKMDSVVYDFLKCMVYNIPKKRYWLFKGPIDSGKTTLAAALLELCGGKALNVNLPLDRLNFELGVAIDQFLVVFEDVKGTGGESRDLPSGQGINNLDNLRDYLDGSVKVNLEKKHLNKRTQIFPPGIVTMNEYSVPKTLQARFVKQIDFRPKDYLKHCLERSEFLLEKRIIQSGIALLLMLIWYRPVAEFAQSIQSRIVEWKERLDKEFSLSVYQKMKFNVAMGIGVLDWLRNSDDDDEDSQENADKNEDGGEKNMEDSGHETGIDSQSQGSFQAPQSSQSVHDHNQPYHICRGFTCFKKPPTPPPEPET
Sequence of Transitional endoplasmic reticulum ATPase (Homo sapiens, UniProt P55072, C522A) (P55072 2-806 C522A limits assumed): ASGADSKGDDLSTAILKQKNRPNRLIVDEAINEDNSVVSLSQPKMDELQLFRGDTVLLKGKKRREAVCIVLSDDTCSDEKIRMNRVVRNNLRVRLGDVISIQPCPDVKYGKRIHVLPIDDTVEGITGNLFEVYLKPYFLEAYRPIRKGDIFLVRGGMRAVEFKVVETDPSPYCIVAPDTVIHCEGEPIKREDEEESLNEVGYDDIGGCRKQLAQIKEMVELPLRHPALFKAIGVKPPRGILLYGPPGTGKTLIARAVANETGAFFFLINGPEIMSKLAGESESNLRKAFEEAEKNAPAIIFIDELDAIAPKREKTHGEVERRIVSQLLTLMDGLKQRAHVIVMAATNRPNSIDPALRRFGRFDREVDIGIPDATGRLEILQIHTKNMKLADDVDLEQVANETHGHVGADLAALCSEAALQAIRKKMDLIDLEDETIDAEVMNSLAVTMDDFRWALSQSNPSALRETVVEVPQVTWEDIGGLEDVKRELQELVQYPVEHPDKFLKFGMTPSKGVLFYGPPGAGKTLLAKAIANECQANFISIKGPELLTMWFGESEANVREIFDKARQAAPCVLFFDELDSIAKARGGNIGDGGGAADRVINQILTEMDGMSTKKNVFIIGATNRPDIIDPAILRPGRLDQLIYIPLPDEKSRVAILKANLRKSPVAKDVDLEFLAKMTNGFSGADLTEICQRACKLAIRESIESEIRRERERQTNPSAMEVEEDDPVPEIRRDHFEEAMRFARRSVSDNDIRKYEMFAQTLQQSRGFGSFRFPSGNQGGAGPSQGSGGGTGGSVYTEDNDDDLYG
Sequence of Peroxisome proliferator-activated receptor gamma/Nuclear receptor coactivator 2 (P37231 whole entry): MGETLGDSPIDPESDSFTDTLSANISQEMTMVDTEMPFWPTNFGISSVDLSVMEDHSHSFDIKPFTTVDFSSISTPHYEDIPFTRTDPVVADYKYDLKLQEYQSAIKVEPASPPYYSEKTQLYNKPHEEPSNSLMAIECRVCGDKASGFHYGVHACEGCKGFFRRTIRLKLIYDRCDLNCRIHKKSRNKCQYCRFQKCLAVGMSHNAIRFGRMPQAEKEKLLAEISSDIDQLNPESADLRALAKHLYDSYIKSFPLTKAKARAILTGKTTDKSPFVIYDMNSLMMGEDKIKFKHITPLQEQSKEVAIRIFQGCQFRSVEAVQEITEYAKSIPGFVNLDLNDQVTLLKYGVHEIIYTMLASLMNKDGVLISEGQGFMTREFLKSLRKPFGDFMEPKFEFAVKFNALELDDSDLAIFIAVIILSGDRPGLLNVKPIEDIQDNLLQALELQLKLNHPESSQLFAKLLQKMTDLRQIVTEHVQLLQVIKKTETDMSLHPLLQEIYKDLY
Sequence of Peroxisome proliferator-activated receptor gamma/Nuclear receptor coactivator 2 (Q15596 whole entry, further chain): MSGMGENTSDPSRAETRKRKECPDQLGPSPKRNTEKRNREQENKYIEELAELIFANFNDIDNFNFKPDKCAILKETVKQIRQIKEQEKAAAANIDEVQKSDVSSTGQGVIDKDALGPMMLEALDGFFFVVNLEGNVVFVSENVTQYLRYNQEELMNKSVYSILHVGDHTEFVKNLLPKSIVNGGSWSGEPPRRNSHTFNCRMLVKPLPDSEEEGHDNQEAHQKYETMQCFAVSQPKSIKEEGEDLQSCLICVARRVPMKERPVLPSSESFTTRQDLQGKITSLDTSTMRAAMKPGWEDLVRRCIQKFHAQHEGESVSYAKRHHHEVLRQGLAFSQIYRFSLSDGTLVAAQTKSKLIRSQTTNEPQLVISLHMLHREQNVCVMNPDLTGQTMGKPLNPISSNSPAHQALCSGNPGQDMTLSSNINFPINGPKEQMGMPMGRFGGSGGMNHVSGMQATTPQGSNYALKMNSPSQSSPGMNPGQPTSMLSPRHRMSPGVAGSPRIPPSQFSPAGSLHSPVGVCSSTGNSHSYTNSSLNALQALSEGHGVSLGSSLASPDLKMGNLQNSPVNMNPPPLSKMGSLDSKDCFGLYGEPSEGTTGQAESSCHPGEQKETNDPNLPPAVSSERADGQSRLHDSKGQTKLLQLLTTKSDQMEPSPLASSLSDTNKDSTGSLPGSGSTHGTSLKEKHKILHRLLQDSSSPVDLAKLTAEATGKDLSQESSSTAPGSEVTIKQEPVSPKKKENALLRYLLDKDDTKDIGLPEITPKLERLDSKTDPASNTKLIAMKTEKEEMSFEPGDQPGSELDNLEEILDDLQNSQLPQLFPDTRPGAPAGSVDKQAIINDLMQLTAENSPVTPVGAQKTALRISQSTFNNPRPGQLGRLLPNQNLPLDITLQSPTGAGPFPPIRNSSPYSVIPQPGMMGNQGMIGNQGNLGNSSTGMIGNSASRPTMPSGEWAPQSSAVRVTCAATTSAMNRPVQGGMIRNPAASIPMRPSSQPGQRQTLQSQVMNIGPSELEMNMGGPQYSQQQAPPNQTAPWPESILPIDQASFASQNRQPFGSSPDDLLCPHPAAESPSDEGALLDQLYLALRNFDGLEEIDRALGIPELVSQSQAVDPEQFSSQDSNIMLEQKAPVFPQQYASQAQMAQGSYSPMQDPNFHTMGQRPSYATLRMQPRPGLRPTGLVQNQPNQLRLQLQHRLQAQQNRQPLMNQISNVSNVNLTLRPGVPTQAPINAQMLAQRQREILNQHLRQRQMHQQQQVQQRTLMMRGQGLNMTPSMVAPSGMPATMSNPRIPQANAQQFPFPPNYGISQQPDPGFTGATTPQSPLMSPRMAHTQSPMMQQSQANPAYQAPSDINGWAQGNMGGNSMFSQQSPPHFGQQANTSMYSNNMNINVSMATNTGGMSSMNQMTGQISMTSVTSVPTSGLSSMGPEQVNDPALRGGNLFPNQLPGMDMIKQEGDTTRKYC

Nc1nc2ccc(N3CCOCC3)cc2s1
IC50 (Large T antigen): 7.66 µM (active) | EC50 [1]: > 79.4 µM (not active) | EC50 [2]: > 79.4 µM (not active) | EC50 [3]: > 79.4 µM (not active)

O=C1CNC(=S)N1CCc1ccc(Cl)cc1
EC50 [4]: > 100 µM (active)

N#CC1=C2C=Cc3ccccc3N2CCCC1=O
EC50 [5]: 20 µM (active) | EC50 [6]: 26.4 µM (active) | CC50 [7]: > 40 µM (active) | EC50 (H4): 21 µM (active)

Cc1[nH]c2ccccc2c1C(=O)CCl
IC50 [8]: > 50 µM (not active) | IC50 [9]: > 50 µM (not active) | EC50 [10]: 0.497 µM (active) | AC50 [11]: 6.78 µM (active) | EC50 [12]: 8.72 µM (inconclusive)

C/C=C(\C)C(=O)N[C@@H](c1ccccc1)[C@@H](O)C(=O)O[C@H]1C[C@@]2(O)[C@@H](OC(=O)c3ccccc3)C3[C@](C)(C(=O)[C@H](OC(C)=O)C(=C1C)C2(C)C)[C@H](O)C[C@H]1OC[C@@]31OC(C)=O (stereo not given in full)
EC50 (BJ [13]): > 150 µM (not active) | EC50 [14]: 0.171 µM (active) | EC50 [15]: < 0.12 µM (active) | IC50 [16]: 0.101 µM (active) | EC50 [17]: < 0.1 µM (active) | EC50 [18]: < 0.1 µM (active) | EC50 [19]: 0.11 µM (active) | EC50 [20]: 0.092 µM (active) | EC50 (BJ [21]): 0.189 µM (active) | EC50 (cells [22]): 0.19 µM (active) | EC50 (cells [23]): 0.011 µM (active) | EC50 [24]: 1.71 µM (active) | IC50 [25]: > 80 µM (inactive)

Cc1noc(/C=C/Nc2ccc(F)cc2F)c1[N+](=O)[O-]
CC50 [7]: 39 µM (active) | IC50 [26]: 27.5 µM (inactive) | IC50 [27]: 35.7 µM (inactive)
